The results in this text go back to patent US20030194434A1, “Bubbling tablet, bubbling bath additive tablet, bubbling washing detergent tablet, bubbling tablet for oral administration, and process for producing these” (priority 2000, published 2003).

Structures are written as SMILES.

A short description of the data set: Kinetic viscosity of saccharide solution, Ubbelohde viscosimeter, Japanese Pharmacopoeia 13th edition. The format is physicochemical. Particulars: 0.5 g of component dissolved in 50 ml of water (25° C.). The protocol:
The value shown after each component in parenthesis is the kinetic viscosity of the solution in which 0.5 g of each component is dissolved in 50 ml of water (25° C.).

On to `OC[C@H]1O[C@H](O[C@H]2O[C@H](CO)[C@@H](O)[C@H](O)[C@H]2O)[C@H](O)[C@@H](O)[C@@H]1O` [trehalose], for which the kinetic viscosity amounted to 0.891 cSt.

`OC[C@@H](O)[C@H](O)[C@@H](O)CO` [xylitol] returned a kinetic viscosity of 0.904 cSt.

As for `OC[C@@H](O)[C@@H](O)[C@H](O)[C@H](O)CO` [mannitol], the kinetic viscosity came out at 0.896 cSt.

For `OC[C@@H](O)[C@@H](O[C@H]1O[C@H](CO)[C@@H](O)[C@H](O)[C@H]1O)[C@H](O)[C@@H](O)CO` [maltitol], the kinetic viscosity came out at 0.904 cSt.

For the compound `OC[C@H]1O[C@@](CO)(O[C@H]2O[C@H](CO)[C@@H](O)[C@H](O)[C@H]2O)[C@@H](O)[C@@H]1O` [sucrose], the kinetic viscosity amounted to 0.912 cSt.

For the compound `OC[C@@H](O)[C@@H](O)[C@H](O)[C@@H](O)CO` [sorbitol], the kinetic viscosity was 0.897 cSt.
